Test results reported in US12091426B2, “Bifunctional degraders of hematopoietic progenitor kinase and therapeutic uses thereof” (Nurix Therapeutics, Inc., priority 2021, dated 2024).

Target: T1, HPK1 (Homo sapiens, UniProt Q92918)
T1 construct: A HiBiT tag was introduced by CRISPR on the N terminus of HPK1 in Jurkat cells; host or cells: Jurkat cells (ATCC TIB-152), monoclonal line with CRISPR knock-in of HiBiT at the endogenous HPK1 locus
Experiment: HPK1 Cellular HiBit Degradation Assay
Type: cell-based
Conditions: HiBiT HPK1 Jurkat cells, 24 hrs; for DC50: concentration at which 50% of HPK1 was remaining, read-out: DC50 Category; for Dmax: Jurkat, read-out: Dmax Category
How it was run: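 Jurkat cells with CRISPR knock-in N-terminal HiBiT-HPK1 were treated with CTMs (11-point, 3.16-fold, 10 uM to 0.1 nM final) for 24 hrs at 37° C. HiBiT lytic luminescence, with parental Jurkat as background and DMSO as 100%, gave % HPK1 remaining; four-parameter fit yielded DC50 and Dmax (100 minus lowest % remaining).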

[1] = maximum degradation vs DMSO vehicle control

T1 sequence (Q92918 whole entry): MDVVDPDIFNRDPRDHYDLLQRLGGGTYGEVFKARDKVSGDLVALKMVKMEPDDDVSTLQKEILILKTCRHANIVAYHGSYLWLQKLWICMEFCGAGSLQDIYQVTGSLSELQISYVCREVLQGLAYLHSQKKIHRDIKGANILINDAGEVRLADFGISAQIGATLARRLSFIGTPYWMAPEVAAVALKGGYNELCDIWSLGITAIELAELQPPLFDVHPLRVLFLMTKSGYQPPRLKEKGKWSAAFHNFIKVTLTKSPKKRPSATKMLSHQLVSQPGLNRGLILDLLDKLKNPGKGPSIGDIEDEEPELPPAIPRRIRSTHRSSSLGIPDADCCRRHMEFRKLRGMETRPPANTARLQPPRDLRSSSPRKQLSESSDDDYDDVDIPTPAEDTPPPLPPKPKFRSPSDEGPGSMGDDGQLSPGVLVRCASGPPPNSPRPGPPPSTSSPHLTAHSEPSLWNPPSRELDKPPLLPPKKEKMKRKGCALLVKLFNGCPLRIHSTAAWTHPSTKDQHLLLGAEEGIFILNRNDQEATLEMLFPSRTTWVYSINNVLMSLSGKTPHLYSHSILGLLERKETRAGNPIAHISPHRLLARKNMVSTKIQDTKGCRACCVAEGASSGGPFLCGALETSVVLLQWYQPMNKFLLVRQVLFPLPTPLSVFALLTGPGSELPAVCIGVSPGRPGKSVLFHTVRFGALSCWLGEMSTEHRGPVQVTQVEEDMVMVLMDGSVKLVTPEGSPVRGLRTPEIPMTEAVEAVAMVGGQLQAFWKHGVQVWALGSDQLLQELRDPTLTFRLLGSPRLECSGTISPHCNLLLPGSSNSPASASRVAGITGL

## CC(C)n1cnc2cc(-c3ccc4c(c3)N([C@H]3C[C@@H](N5CCCCC5)C3)C(=O)C43CCN(C(=O)[C@@H]4CCC[C@H](NC(=O)CC5CCN(c6ccc(C7CCC(=O)NC7=O)cn6)CC5)C4)CC3)nc(NC3CC3)c21 (mixture of isomers) [Example 292, N-[(1S,3R)-3-({6-[4-(cyclopropylamino)-3-(propan-2-yl)-3H-imidazo[4,5-c]pyridin-6-yl]-2-oxo-1-[(1s,3s)-3-(piperidin-1-yl)cyclobutyl]-1,2-dihydrospiro[indole-3,4′-piperidin]-1′-yl}carbonyl)cyclohexyl]-2-(1-{5-[(3RS)-2,6-dioxopiperidin-3-yl]pyridin-2-yl}piperidin-4-yl)acetamide]
  DC50: 100 to 500 nM
[1]
  Dmax: 70 to 85%

## CC(C)n1cnc2cc(-c3ccc4c(c3)N([C@H]3C[C@@H](N5CCCCC5)C3)C(=O)C43CCN(C(=O)c4ccc(CN5CCN(C(=O)C6CCN(c7ccc(C8CCC(=O)NC8=O)cn7)CC6)CC5)cc4)CC3)nc(NC3CC3)c21 (mixture of isomers) [Example 293, (3RS)-3-{6-[4-(4-{[4-({6-[4-(cyclopropylamino)-3-(propan-2-yl)-3H-imidazo[4,5-c]pyridin-6-yl]-2-oxo-1-[(1S,3S)-3-(piperidin-1-yl)cyclobutyl]-1,2-dihydrospiro[indole-3,4′-piperidin]-1′-yl}carbonyl)phenyl]methyl}piperazine-1-carbonyl)piperidin-1-yl]pyridin-3-yl}piperidine-2,6-dione]
  DC50: 100 to 500 nM
[1]
  Dmax: 70 to 85%

## CC(C)n1cnc2cc(-c3ccc4c(c3)N([C@H]3C[C@@H](N5CCCCC5)C3)C(=O)C43CCN(C(=O)C4CCC5(CCN(C(=O)C6CCN(c7ccc(C8CCC(=O)NC8=O)cn7)CC6)CC5)C4)CC3)nc(NC3CC3)c21 (mixture of isomers) [Example 294, (3RS)-3-(6-{4-[2-({6-[4-(cyclopropylamino)-3-(propan-2-yl)-3H-imidazo[4,5-c]pyridin-6-yl]-2-oxo-1-[(1S,3S)-3-(piperidin-1-yl)cyclobutyl]-1,2-dihydrospiro[indole-3,4′-piperidin]-1′-yl}carbonyl)-8-azaspiro[4.5]decane-8-carbonyl]piperidin-1-yl}pyridin-3-yl)piperidine-2,6-dione]
  DC50: 100 to 500 nM
[1]
  Dmax: 70 to 85%

## CC(C)n1cnc2cc(-c3ccc4c(c3)N([C@H]3C[C@@H](N5CCCCC5)C3)C(=O)C43CCN(C(=O)C4CCC5(CC4)CCN(C(=O)C4CCN(c6ccc(C7CCC(=O)NC7=O)cn6)CC4)CC5)CC3)nc(NC3CC3)c21 (mixture of isomers) [Example 295, (3RS)-3-(6-{4-[9-({6-[4-(cyclopropylamino)-3-(propan-2-yl)-3H-imidazo[4,5-c]pyridin-6-yl]-2-oxo-1-[(1S,3S)-3-(piperidin-1-yl)cyclobutyl]-1,2-dihydrospiro[indole-3,4′-piperidin]-1′-yl}carbonyl)-3-azaspiro[5.5]undecane-3-carbonyl]piperidin-1-yl}pyridin-3-yl)piperidine-2,6-dione]
  DC50: 100 to 500 nM
[1]
  Dmax: 70 to 85%

## CC(C)n1cnc2cc(-c3ccc4c(c3)N([C@H]3C[C@@H](N5CCCCC5)C3)C(=O)C43CCN(C(=O)C[C@H]4CCCN(C(=O)C5CCN(c6ccc(C7CCC(=O)NC7=O)cn6)CC5)C4)CC3)nc(NC3CC3)c21 (mixture of isomers) [Example 296, (3RS)-3-(6-{4-[(3R)-3-(2-{6-[4-(cyclopropylamino)-3-(propan-2-yl)-3H-imidazo[4,5-c]pyridin-6-yl]-2-oxo-1-[(1S,3S)-3-(piperidin-1-yl)cyclobutyl]-1,2-dihydrospiro[indole-3,4′-piperidin]-1′-yl}-2-oxoethyl)piperidine-1-carbonyl]piperidin-1-yl}pyridin-3-yl)piperidine-2,6-dione]
  DC50: 100 to 500 nM
[1]
  Dmax: 70 to 85%

## CC(C)n1cnc2cc(-c3ccc4c(c3)N([C@H]3C[C@@H](N5CCCCC5)C3)C(=O)C43CCN(C(=O)C[C@H]4CCCN(C(=O)CC5CCN(c6ccc(C7CCC(=O)NC7=O)cn6)CC5)C4)CC3)nc(NC3CC3)c21 (mixture of isomers) [Example 297, (3RS)-3-[6-(4-{2-[(3R)-3-(2-{6-[4-(cyclopropylamino)-3-(propan-2-yl)-3H-imidazo[4,5-c]pyridin-6-yl]-2-oxo-1-[(1S,3S)-3-(piperidin-1-yl)cyclobutyl]-1,2-dihydrospiro[indole-3,4′-piperidin]-1′-yl}-2-oxoethyl)piperidin-1-yl]-2-oxoethyl}piperidin-1-yl)pyridin-3-yl]piperidine-2,6-dione]
  DC50: 500 to 1000 nM
[1]
  Dmax: 50 to 70%

## CC(C)n1cnc2cc(-c3ccc4c(c3)N([C@H]3C[C@@H](N5CCCCC5)C3)C(=O)C43CCN(C(=O)C[C@@H]4CCCN(C(=O)C5CCN(c6ccc(C7CCC(=O)NC7=O)cn6)CC5)C4)CC3)nc(NC3CC3)c21 (mixture of isomers) [Example 298, (3RS)-3-(6-{4-[(3S)-3-(2-{6-[4-(cyclopropylamino)-3-(propan-2-yl)-3H-imidazo[4,5-c]pyridin-6-yl]-2-oxo-1-[(1S,3S)-3-(piperidin-1-yl)cyclobutyl]-1,2-dihydrospiro[indole-3,4′-piperidin]-1′-yl}-2-oxoethyl)piperidine-1-carbonyl]piperidin-1-yl}pyridin-3-yl)piperidine-2,6-dione]
  DC50: 100 to 500 nM
[1]
  Dmax: 50 to 70%

## CC(C)n1cnc2cc(-c3ccc4c(c3)N([C@H]3C[C@@H](N5CCCCC5)C3)C(=O)C43CCN(C(=O)C[C@@H]4CCCN(C(=O)CC5CCN(c6ccc(C7CCC(=O)NC7=O)cn6)CC5)C4)CC3)nc(NC3CC3)c21 (mixture of isomers) [Example 299, (3RS)-3-[6-(4-{2-[(3S)-3-(2-{6-[4-(cyclopropylamino)-3-(propan-2-yl)-3H-imidazo[4,5-c]pyridin-6-yl]-2-oxo-1-[(1S,3S)-3-(piperidin-1-yl)cyclobutyl]-1,2-dihydrospiro[indole-3,4′-piperidin]-1′-yl}-2-oxoethyl)piperidin-1-yl]-2-oxoethyl}piperidin-1-yl)pyridin-3-yl]piperidine-2,6-dione]
  DC50: 100 to 500 nM
[1]
  Dmax: 70 to 85%

## CC(C)n1cnc2cc(-c3ccc4c(c3)N([C@H]3C[C@@H](N5CCCCC5)C3)C(=O)C43CCN(C(=O)C4(C5CCN(C(=O)C6CCN(c7ccc(C8CCC(=O)NC8=O)cn7)CC6)CC5)CCC4)CC3)nc(NC3CC3)c21 (mixture of isomers) [Example 300, (3RS)-3-[6-(4-{4-[1-({6-[4-(cyclopropylamino)-3-(propan-2-yl)-3H-imidazo[4,5-c]pyridin-6-yl]-2-oxo-1-[(1S,3S)-3-(piperidin-1-yl)cyclobutyl]-1,2-dihydrospiro[indole-3,4′-piperidin]-1′-yl}carbonyl)cyclobutyl]piperidine-1-carbonyl}piperidin-1-yl)pyridin-3-yl]piperidine-2,6-dione]
  DC50: < 100 nM
[1]
  Dmax: 70 to 85%

## CC(C)n1cnc2cc(-c3ccc4c(c3)N([C@H]3C[C@@H](N5CCCCC5)C3)C(=O)C43CCN(C(=O)c4cccc(C5CCN(C(=O)C6CCN(c7ccc(C8CCC(=O)NC8=O)cn7)CC6)CC5)c4)CC3)nc(NC3CC3)c21 (mixture of isomers) [Example 301, (3RS)-3-[6-(4-{4-[3-({6-[4-(cyclopropylamino)-3-(propan-2-yl)-3H-imidazo[4,5-c]pyridin-6-yl]-2-oxo-1-[(1S,3S)-3-(piperidin-1-yl)cyclobutyl]-1,2-dihydrospiro[indole-3,4′-piperidin]-1′-yl}carbonyl)phenyl]piperidine-1-carbonyl}piperidin-1-yl)pyridin-3-yl]piperidine-2,6-dione]
  DC50: 100 to 500 nM
[1]
  Dmax: 50 to 70%

## CC(C)n1cnc2cc(-c3ccc4c(c3)N([C@H]3C[C@@H](N5CCCCC5)C3)C(=O)C43CCN(C(=O)c4ccc(C5CCN(C(=O)C6CCN(c7ccc(C8CCC(=O)NC8=O)cn7)CC6)CC5)cc4)CC3)nc(NC3CC3)c21 (mixture of isomers) [Example 302, (3RS)-3-[6-(4-{4-[4-({6-[4-(cyclopropylamino)-3-(propan-2-yl)-3H-imidazo[4,5-c]pyridin-6-yl]-2-oxo-1-[(1S,3S)-3-(piperidin-1-yl)cyclobutyl]-1,2-dihydrospiro[indole-3,4′-piperidin]-1′-yl}carbonyl)phenyl]piperidine-1-carbonyl}piperidin-1-yl)pyridin-3-yl]piperidine-2,6-dione]
  DC50: 100 to 500 nM
[1]
  Dmax: 70 to 85%

## CC(C)n1cnc2cc(-c3ccc4c(c3)N([C@H]3C[C@@H](N5CCCCC5)C3)C(=O)C43CCN(C(=O)C4CC45CCN(C(=O)C4CCN(c6ccc(C7CCC(=O)NC7=O)cn6)CC4)C5)CC3)nc(NC3CC3)c21 (mixture of isomers) [Example 303, (3RS)-3-(6-{4-[1-({6-[4-(cyclopropylamino)-3-(propan-2-yl)-3H-imidazo[4,5-c]pyridin-6-yl]-2-oxo-1-[(1S,3S)-3-(piperidin-1-yl)cyclobutyl]-1,2-dihydrospiro[indole-3,4′-piperidin]-1′-yl}carbonyl)-5-azaspiro[2.4]heptane-5-carbonyl]piperidin-1-yl}pyridin-3-yl)piperidine-2,6-dione]
  DC50: 500 to 1000 nM
[1]
  Dmax: 50 to 70%

## CC(C)n1cnc2cc(-c3ccc4c(c3)N([C@H]3C[C@@H](N5CCCCC5)C3)C(=O)C43CCN(C(=O)C4(C)CCN(C(=O)C5CCN(c6ccc([C@H]7CCC(=O)NC7=O)cn6)CC5)CC4)CC3)nc(NC3CC3)c21 (single isomer, unassigned) [Example 212]
  DC50: < 100 nM
[1]
  Dmax Category: B (B: >70%-<85%)
